In US9682995B2, “Amino-substituted isothiazoles” (BAYER PHARMA AKTIENGESELLSCHAFT, priority 2013, dated 2017):

System: spindle assembly checkpoint
Assay: SAC-Formation - Nocodazole-Induced Assay
Assay type: cell-based
Conditions: Homo sapiens; HeLa cells, nocodazole 0.1 μg/ml, 24 h, phosphorylated histone H3 on serine 10
Excerpt: The spindle assembly checkpoint assures the proper segregation of chromosomes during mitosis. Upon entry into mitosis, chromosomes begin to condensate which is accompanied by the phosphorylation of histone H3 on serine 10. Dephosphorylation of histone H3 on serine 10 begins in anaphase and ends at early telophase. Accordingly, phosphorylation of histone H3 on serine 10 can be utilized as a marker of cells in mitosis. Nocodazole is a microtubule destabilizing substance. Paclitaxel is a microtubule stabilizing compound. Thus, nocodazole as well as paclitaxel interfere with microtubule dynamics and mobilize the spindle assembly checkpoint. […] The mitotic breakthrough can be detected by the decrease of cells with phosphorylation of histone H3 on serine 10. This decline is used as a marker to determine the capability of compounds of the present invention to induce a mitotic breakthrough. The typical morphological alteration of nuclei with a prematurely completed mitosis after SAC-inhibition can be monitored via image analysis routines supporting those findings.
The nocodazole and paclitaxel variations were used to focus on compounds that are capable of inhibiting a SAC induced by both microtubule destabilization as well as microtubule stabilization. When SAC inducing agents and compounds are given simultaneously, inhibitors that effectively block the SAC during formation or abrogation are identified. When cells are incubated with a SAC inducing agent and the SAC interfering compound is given after a defined time, inhibitors are identified that effectively block SAC abrogation.
Cultivated cells of the human cervical tumor cell line HeLa (ATCC CCL-2) were plated at a density of 1000 cells/well in a 1536-well microtiter plate in 2 μl PAA Ham's F12 Medium supplemented with 1% (v/v) glutamine, 1% (v/v) penicillin, 1% (v/v) streptomycin and 10% (v/v) fetal calf serum. After incubation overnight at 37° C., 10 μl/well nocodazole at a final concentration of 0.1 μg/ml were added to cells. Test compounds solubilized in dimethyl sulfoxide (DMSO) were added at various concentrations (0 μM, as well as in the range of 0.005 μM-20 μM; the final concentration of the solvent DMSO was 0.5% (v/v)). Cells were incubated for 24 h at 37° C. in the presence of test compounds in combination with nocodazole. Thereafter, cells were fixed in 4% (v/v) paraformaldehyde in phosphate buffered saline (PBS) at 4° C. overnight then permeabilized in 0.1% (v/v) Triton X™ 100 in PBS at room temperature for 20 min and blocked in 0.5% (v/v) bovine serum albumin (BSA) in PBS at room temperature for 15 min. After washing with PBS, 5 μl/well antibody solution (anti-phospho-histone H3 clone 3H10, FITC; Millipore, Cat #16-222; 1:1000 dilution) was added to cells, which were incubated for 2 h at room temperature. Afterwards, cells were washed with PBS and 5 μl/well solution of HOECHST 33342 dye (5 μg/ml) was added to cells and cells were incubated 15 min at room temperature in the dark. Cells were washed twice with PBS then covered with PBS and stored at 4° C. until analysis. Images were acquired with a PERKIN ELMER OPERA™ High-Content Analysis reader. Images were analyzed with image analysis software MetaXpress™ from Molecular devices utilizing the Mitotic Index application module. In this assay both labels HOECHST 33342 and phosphorylated Histone H3 on serine 10 were measured. HOECHST 33342 labels the DNA and is used to count the cell number. The staining of phosphorylated Histone H3 on serine 10 determines the number of mitotic cells. […] Otherwise cells were arrested at G2/M phase of the cell cycle progression. The raw assay data were further analyzed by four-parametric hill equation using Genedata's Assay Analyzer and Condoseo software.

Going from `COc1ccc(NC(=O)c2c(C)nsc2Nc2nc3c(C(F)(F)F)ccnc3s2)cn1` [Example 123] to `COc1ccc(NC(=O)c2c(C)nsc2Nc2nc3ncc(C(F)(F)F)cc3s2)cn1` [Example 124], the IC50 rises from 0.22 µM to 18 µM (82-fold). The first is the more potent here.

Going from `CCc1ccccc1NC(=O)c1c(C)nsc1Nc1ncccc1OC` [Example 144] to `CCc1ccccc1NC(=O)c1c(C)nsc1Nc1ncccc1C` [Example 141], the IC50 falls from over 20 µM to 19 µM.

`CCc1ccccc1NC(=O)c1c(C)nsc1Nc1cccc(OC)n1` [Example 148] and `CCc1ccccc1NC(=O)c1c(C)nsc1Nc1cc(OC)ccn1` [Example 134] cannot be ordered by IC50: over 20 µM for the first, over 20 µM for the second.

Going from `COc1ccc(NC(=O)c2c(C)nsc2Nc2ncc(C#N)s2)cn1` [Example 158] to `COc1ccc(NC(=O)c2c(C)nsc2Nc2ncc(C(N)=O)s2)cn1` [Example 152], the IC50 rises from 4.2 µM to over 20 µM. The first is the more potent here.

Going from `Cc1nsc(Nc2cnccn2)c1C(=O)Nc1ccc(OC2CCCCC2)nc1` [Example 163] to `CCOc1ccc(NC(=O)c2c(C)nsc2Nc2cc(C#N)ccn2)cn1` [Example 143], the IC50 rises from 1.3 µM to over 20 µM. The first is the more potent here.

`COC(=O)c1cnc(Nc2snc(C)c2C(=O)Nc2ccc(OC)nc2)o1` [Example 147] and `CCOC(=O)c1cnc(Nc2snc(C)c2C(=O)Nc2ccc(OC)nc2)o1` [Example 150] are within 1.5-fold of each other in IC50: 13 µM for the first, 16 µM for the second.

Going from `COc1ccc(NC(=O)c2c(C)nsc2Nc2nc(C(N)=O)cs2)cn1` [Example 160] to `COc1ccc(NC(=O)c2c(C)nsc2Nc2ncc(C(=O)O)s2)cn1` [Example 126], the IC50 rises from 2.6 µM to 19 µM (7.3-fold).

`CCc1ccccc1NC(=O)c1c(C)nsc1Nc1nccc2ccccc12` [Example 138] and `CCc1ccccc1NC(=O)c1c(C)nsc1Nc1ccccn1` [Example 142] are within 1.5-fold of each other in IC50: 17 µM for the first, 14 µM for the second.

First: Cc1nsc(Nc2ccc(C(=O)N(C)C)nn2)c1C(=O)Nc1ccc(F)c(F)c1 [Example 153]
Second: Cc1nsc(Nc2cc(C(=O)N(C)C)ccn2)c1C(=O)Nc1ccc(F)c(F)c1 [Example 130]
The IC50 of the first is lower: 1.5 µM for the first, over 20 µM for the second. The first is the more potent here.

First: COc1ccc(NC(=O)c2c(C)nsc2Nc2nc3cnccc3s2)cn1 [Example 129]
Second: COc1ccc(NC(=O)c2c(C)nsc2Nc2nc(-c3ccc(Cl)cc3)cs2)cn1 [Example 156]
The IC50 of the first is 25-fold higher: 14 µM for the first, 0.55 µM for the second.

Going from `CCc1ccccc1NC(=O)c1c(C)nsc1Nc1ncccn1` [Example 137] to `CCc1cnc(Nc2snc(C)c2C(=O)Nc2ccccc2CC)nc1` [Example 136], the IC50 falls from over 20 µM to 6.8 µM. The second is the more potent here.

`CCNC(=O)c1cnc(Nc2snc(C)c2C(=O)Nc2ccc(OC)nc2)s1` [Example 154] and `COc1ccc(NC(=O)c2c(C)nsc2Nc2ncc(C(=O)N(C)C)s2)cn1` [Example 155] are within 1.5-fold of each other in IC50: 4.3 µM for the first, 5.8 µM for the second.

`Cc1nsc(Nc2cncc(C(=O)N3CCN(C)CC3)n2)c1C(=O)Nc1ccc(F)c(F)c1` [Example 133] and `CNc1cncc(Nc2snc(C)c2C(=O)Nc2ccc(F)c(F)c2)n1` [Example 132] are within 1.5-fold of each other in IC50: 15 µM for the first, 14 µM for the second.

Going from `CCc1ccccc1NC(=O)c1c(C)nsc1Nc1ncc(OC)cn1` [Example 135] to `CCc1ccccc1NC(=O)c1c(C)nsc1Nc1cnc(C(=O)OC)cn1` [Example 146], the IC50 falls from 16 µM to 1.4 µM (11-fold).

Compared with `Cc1nsc(Nc2nc(C(=O)N(C)C)cs2)c1C(=O)Nc1ccc(F)c(F)c1` [Example 131], `COc1ccnc(Nc2snc(C)c2C(=O)Nc2ccc(F)c(F)c2)c1` [Example 125] is higher in IC50: 11 µM for the first, over 20 µM for the second. The first is the more potent here.

First: CCc1ccccc1NC(=O)c1c(C)nsc1Nc1ccc(C(=O)OC)cn1 [Example 145]
Second: CCc1ccccc1NC(=O)c1c(C)nsc1Nc1cc(C(=O)OC)ccn1 [Example 149]
The IC50 of the first is 1.8-fold higher: 7.2 µM for the first, 4.1 µM for the second.

Going from `Cc1nsc(Nc2ccc(C(N)=O)cn2)c1C(=O)Nc1ccc(Cl)c(F)c1` [Example 151] to `COc1ccc(NC(=O)c2c(C)nsc2Nc2ccc(C#N)cn2)cc1F` [Example 162], the IC50 rises from 1.7 µM to over 20 µM.

Going from `CCc1ccccc1NC(=O)c1c(C)nsc1Nc1nc(C)cc(C)n1` [Example 127] to `CCc1ccccc1NC(=O)c1c(C)nsc1Nc1ncnc(C)c1C` [Example 159], the IC50 falls from over 20 µM to 15 µM. The second is the more potent here.

Going from `CCc1ccccc1NC(=O)c1c(C)nsc1Nc1cnc(C(N)=O)cn1` [Example 161] to `CCOC(=O)c1cc(C)nc(Nc2snc(C)c2C(=O)Nc2ccccc2CC)c1` [Example 139], the IC50 rises from 15 µM to over 20 µM. The first is the more potent here.

Going from `COc1ccc(Oc2ccc(NC(=O)c3c(C)nsc3Nc3ccc(C#N)cn3)cn2)cc1` [Example 157] to `COC(=O)c1ccnc(Nc2snc(C)c2C(=O)Nc2ccc(OC)nc2)c1` [Example 140], the IC50 rises from 2.8 µM to over 20 µM.

With `COc1ccc(NC(=O)c2c(C)nsc2Nc2ncc(C(=O)N3CCOCC3)s2)cn1` [Example 128] the IC50 was 13 µM.
